Measured values: ChEMBL document CHEMBL1153245, “A profile of the in vitro anti-tumor activity of imidazolium-based ionic liquids” (2010)

How the values were obtained:
Type in all cases: functional
ACHN = assay: Anticancer activity against human ACHN cells assessed cell growth at 10 uM after 48 hrs by sulforhodamine B assay relative to control
TK-10 [1] = assay: Anticancer activity against human TK10 cells assessed cell growth at 10 uM after 48 hrs by sulforhodamine B assay relative to control
MDA-MB-231 [2] = assay: Anticancer activity against human MDA-MB-231 cells assessed cell growth at 10 uM after 48 hrs by sulforhodamine B assay relative to control
SR = assay: Anticancer activity against human SR cells after 48 hrs by sulforhodamine B assay; details: Homo sapiens, SR, 48 h
A549 = assay: Anticancer activity against human A549 cells after 48 hrs by sulforhodamine B assay; details: Homo sapiens, A549, 48 h
HOP-62 [3] = assay: Anticancer activity against human HOP62 cells after 48 hrs by sulforhodamine B assay; details: Homo sapiens, HOP-62, 48 h
HOP-92 [4] = assay: Anticancer activity against human HOP92 cells after 48 hrs by sulforhodamine B assay; details: Homo sapiens, HOP-92, 48 h
NCI-H322M = assay: Anticancer activity against human NCI-H322M cells after 48 hrs by sulforhodamine B assay; details: Homo sapiens, NCI-H322M, 48 h
NCI-H522 = assay: Anticancer activity against human NCI-H522 cells after 48 hrs by sulforhodamine B assay; details: Homo sapiens, NCI-H522, 48 h
COLO 205 = assay: Anticancer activity against human COLO205 cells after 48 hrs by sulforhodamine B assay; details: Homo sapiens, COLO 205, 48 h
HCT-116 = assay: Anticancer activity against human HCT116 cells after 48 hrs by sulforhodamine B assay; details: Homo sapiens, HCT-116, 48 h
HCT-15 [5] = assay: Anticancer activity against human HCT15 cells after 48 hrs by sulforhodamine B assay; details: Homo sapiens, HCT-15, 48 h
KM12 = assay: Anticancer activity against human KM12 cells after 48 hrs by sulforhodamine B assay
LOX IMVI = assay: Anticancer activity against human LOXIMVI cells after 48 hrs by sulforhodamine B assay; details: Homo sapiens, LOX IMVI, 48 h
K562 = assay: Anticancer activity against human K562 cells assessed cell growth at 10 uM after 48 hrs by sulforhodamine B assay relative to control
HOP-62 [6] = assay: Anticancer activity against human HOP62 cells assessed cell growth at 10 uM after 48 hrs by sulforhodamine B assay relative to control
HOP-92 [7] = assay: Anticancer activity against human HOP92 cells assessed cell growth at 10 uM after 48 hrs by sulforhodamine B assay relative to control
NCI-H226 = assay: Anticancer activity against human NCI-H226 cells assessed cell growth at 10 uM after 48 hrs by sulforhodamine B assay relative to control
NCI-H460 = assay: Anticancer activity against human NCI-H460 cells assessed cell growth at 10 uM after 48 hrs by sulforhodamine B assay relative to control
HCT-15 [8] = assay: Anticancer activity against human HCT15 cells assessed cell growth at 10 uM after 48 hrs by sulforhodamine B assay relative to control
SF-268 = assay: Anticancer activity against human SF268 cells assessed cell growth at 10 uM after 48 hrs by sulforhodamine B assay relative to control
SK-MEL-2 = assay: Anticancer activity against human SK-MEL-2 cells assessed cell growth at 10 uM after 48 hrs by sulforhodamine B assay relative to control
SK-MEL-5 = assay: Anticancer activity against human SK-MEL-5 cells assessed cell growth at 10 uM after 48 hrs by sulforhodamine B assay relative to control
UACC-257 [9] = assay: Anticancer activity against human UACC257 cells assessed cell growth at 10 uM after 48 hrs by sulforhodamine B assay relative to control
OVCAR-5 [10] = assay: Anticancer activity against human OVCAR5 cells assessed cell growth at 10 uM after 48 hrs by sulforhodamine B assay relative to control
M14 = assay: Anticancer activity against human M14 cells after 48 hrs by sulforhodamine B assay
UACC-257 [11] = assay: Anticancer activity against human UACC257 cells after 48 hrs by sulforhodamine B assay; details: Homo sapiens, UACC-257, 48 h
UACC-62 = assay: Anticancer activity against human UACC62 cells after 48 hrs by sulforhodamine B assay; details: Homo sapiens, UACC-62, 48 h
OVCAR-3 = assay: Anticancer activity against human OVCAR-3 cells after 48 hrs by sulforhodamine B assay; details: Homo sapiens, OVCAR-3, 48 h
OVCAR-4 = assay: Anticancer activity against human OVCAR4 cells after 48 hrs by sulforhodamine B assay; details: Homo sapiens, OVCAR-4, 48 h
OVCAR-5 [12] = assay: Anticancer activity against human OVCAR5 cells after 48 hrs by sulforhodamine B assay; details: Homo sapiens, OVCAR-5, 48 h
OVCAR-8 = assay: Anticancer activity against human OVCAR8 cells after 48 hrs by sulforhodamine B assay; details: Homo sapiens, OVCAR-8, 48 h
786-0 = assay: Anticancer activity against human 786-0 cells after 48 hrs by sulforhodamine B assay; details: Homo sapiens, 786-0, 48 h
CAKI-1 = assay: Anticancer activity against human Caki1 cells after 48 hrs by sulforhodamine B assay; details: Homo sapiens, CAKI-1, 48 h
TK-10 [13] = assay: Anticancer activity against human TK10 cells after 48 hrs by sulforhodamine B assay; details: Homo sapiens, TK-10, 48 h
UO-31 = assay: Anticancer activity against human UO31 cells after 48 hrs by sulforhodamine B assay; details: Homo sapiens, UO-31, 48 h
MCF7 = assay: Anticancer activity against human MCF7 cells after 48 hrs by sulforhodamine B assay; details: Homo sapiens, MCF7, 48 h
NCI/ADR-RES = assay: Anticancer activity against human NCI/ADR-RES cells after 48 hrs by sulforhodamine B assay; details: Homo sapiens, NCI/ADR-RES, 48 h
MDA-MB-231 [14] = assay: Anticancer activity against human MDA-MB-231 cells after 48 hrs by sulforhodamine B assay; details: Homo sapiens, MDA-MB-231, 48 h
BT-549 = assay: Anticancer activity against human BT549 cells after 48 hrs by sulforhodamine B assay; details: Homo sapiens, BT-549, 48 h
MDA-MB-468 = assay: Anticancer activity against human MDA-MB-468 cells after 48 hrs by sulforhodamine B assay; details: Homo sapiens, MDA-MB-468, 48 h
[15] = read-out: LC50 (the source's name)

SMILES: CCCCCCCCCCCC[n+]1ccn(C)c1.[Cl-]
- Activity (ACHN): 45.02%
- Activity (TK-10 [1]): -1.53%
- Activity (MDA-MB-231 [2]): 41.54%
- GI50 (SR): 597 nM
- CC50 (SR; [15]): 97.6 µM
- GI50 (A549): 5.92 µM
- GI50 (HOP-62 [3]): 4.86 µM
- CC50 (HOP-62 [3]; [15]): > 100 µM
- GI50 (HOP-92 [4]): 5.3 µM
- CC50 (HOP-92 [4]; [15]): > 100 µM
- GI50 (NCI-H322M): 22.6 µM
- GI50 (NCI-H522): 2370 nM
- GI50 (COLO 205): 2620 nM
- CC50 (COLO 205; [15]): > 100 µM
- GI50 (HCT-116): 3.59 µM
- CC50 (HCT-116; [15]): > 100 µM
- GI50 (HCT-15 [5]): 20.8 µM
- CC50 (HCT-15 [5]; [15]): > 100 µM
- GI50 (KM12; Homo sapiens, KM12, 48 h): 2090 nM
- CC50 (KM12; [15]): 85.8 µM
- GI50 (LOX IMVI): 1720 nM
- CC50 (LOX IMVI; [15]): 45.3 µM
- Activity (K562): 64.21%
- Activity (HOP-62 [6]): 38.17%
- Activity (HOP-92 [7]): 51.88%
- Activity (NCI-H226): 30.42%
- Activity (NCI-H460): 23.64%
- Activity (HCT-15 [8]): 82.04%
- Activity (SF-268): 58.74%
- Activity (SK-MEL-2): 13.06%
- Activity (SK-MEL-5): -33.13%
- Activity (UACC-257 [9]): -12.38%
- Activity (OVCAR-5 [10]): 45.62%
- GI50 (M14): 1920 nM
- GI50 (UACC-257 [11]): 1680 nM
- GI50 (UACC-62): 3.12 µM
- GI50 (OVCAR-3): 2840 nM
- GI50 (OVCAR-4): 3.17 µM
- CC50 (OVCAR-4; [15]): > 100 µM
- GI50 (OVCAR-5 [12]): 3.75 µM
- CC50 (OVCAR-5 [12]; [15]): > 100 µM
- GI50 (OVCAR-8): 2180 nM
- GI50 (786-0): 3.36 µM
- GI50 (CAKI-1): 1790 nM
- GI50 (TK-10 [13]): 1920 nM
- GI50 (UO-31): 10.2 µM
- GI50 (MCF7): 1690 nM
- GI50 (NCI/ADR-RES): 55 µM
- GI50 (MDA-MB-231 [14]): 3.39 µM
- CC50 (MDA-MB-231 [14]; [15]): 63.6 µM
- GI50 (BT-549): 1840 nM
- CC50 (BT-549; [15]): 50.8 µM
- GI50 (MDA-MB-468): 384 nM
